Patent US20090118332A1, “Therapeutic Agents - 551” (AstraZeneca AB, priority 2006, published 2009)

target: T1, human Fatty Acid Synthase (Homo sapiens, UniProt P49327); assay: Human FAS enzyme assay (decrease in NADPH fluorescence); type: biochemical; conditions: % inhibition at a concentration of 100 μmolar
T1 construct: made in house
Outline: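 In-house human FAS was preincubated with compound and NADPH for 15 min at room temperature in 0.1 M Tris pH 7.5 with EDTA, glutathione and BSA. Malonyl CoA and acetyl CoA (500 μM and 150 μM in the added mix) were then added for 60 min. IC50 came from time-zero-subtracted NADPH fluorescence (340/460 nm).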

T1 sequence (P49327 whole entry): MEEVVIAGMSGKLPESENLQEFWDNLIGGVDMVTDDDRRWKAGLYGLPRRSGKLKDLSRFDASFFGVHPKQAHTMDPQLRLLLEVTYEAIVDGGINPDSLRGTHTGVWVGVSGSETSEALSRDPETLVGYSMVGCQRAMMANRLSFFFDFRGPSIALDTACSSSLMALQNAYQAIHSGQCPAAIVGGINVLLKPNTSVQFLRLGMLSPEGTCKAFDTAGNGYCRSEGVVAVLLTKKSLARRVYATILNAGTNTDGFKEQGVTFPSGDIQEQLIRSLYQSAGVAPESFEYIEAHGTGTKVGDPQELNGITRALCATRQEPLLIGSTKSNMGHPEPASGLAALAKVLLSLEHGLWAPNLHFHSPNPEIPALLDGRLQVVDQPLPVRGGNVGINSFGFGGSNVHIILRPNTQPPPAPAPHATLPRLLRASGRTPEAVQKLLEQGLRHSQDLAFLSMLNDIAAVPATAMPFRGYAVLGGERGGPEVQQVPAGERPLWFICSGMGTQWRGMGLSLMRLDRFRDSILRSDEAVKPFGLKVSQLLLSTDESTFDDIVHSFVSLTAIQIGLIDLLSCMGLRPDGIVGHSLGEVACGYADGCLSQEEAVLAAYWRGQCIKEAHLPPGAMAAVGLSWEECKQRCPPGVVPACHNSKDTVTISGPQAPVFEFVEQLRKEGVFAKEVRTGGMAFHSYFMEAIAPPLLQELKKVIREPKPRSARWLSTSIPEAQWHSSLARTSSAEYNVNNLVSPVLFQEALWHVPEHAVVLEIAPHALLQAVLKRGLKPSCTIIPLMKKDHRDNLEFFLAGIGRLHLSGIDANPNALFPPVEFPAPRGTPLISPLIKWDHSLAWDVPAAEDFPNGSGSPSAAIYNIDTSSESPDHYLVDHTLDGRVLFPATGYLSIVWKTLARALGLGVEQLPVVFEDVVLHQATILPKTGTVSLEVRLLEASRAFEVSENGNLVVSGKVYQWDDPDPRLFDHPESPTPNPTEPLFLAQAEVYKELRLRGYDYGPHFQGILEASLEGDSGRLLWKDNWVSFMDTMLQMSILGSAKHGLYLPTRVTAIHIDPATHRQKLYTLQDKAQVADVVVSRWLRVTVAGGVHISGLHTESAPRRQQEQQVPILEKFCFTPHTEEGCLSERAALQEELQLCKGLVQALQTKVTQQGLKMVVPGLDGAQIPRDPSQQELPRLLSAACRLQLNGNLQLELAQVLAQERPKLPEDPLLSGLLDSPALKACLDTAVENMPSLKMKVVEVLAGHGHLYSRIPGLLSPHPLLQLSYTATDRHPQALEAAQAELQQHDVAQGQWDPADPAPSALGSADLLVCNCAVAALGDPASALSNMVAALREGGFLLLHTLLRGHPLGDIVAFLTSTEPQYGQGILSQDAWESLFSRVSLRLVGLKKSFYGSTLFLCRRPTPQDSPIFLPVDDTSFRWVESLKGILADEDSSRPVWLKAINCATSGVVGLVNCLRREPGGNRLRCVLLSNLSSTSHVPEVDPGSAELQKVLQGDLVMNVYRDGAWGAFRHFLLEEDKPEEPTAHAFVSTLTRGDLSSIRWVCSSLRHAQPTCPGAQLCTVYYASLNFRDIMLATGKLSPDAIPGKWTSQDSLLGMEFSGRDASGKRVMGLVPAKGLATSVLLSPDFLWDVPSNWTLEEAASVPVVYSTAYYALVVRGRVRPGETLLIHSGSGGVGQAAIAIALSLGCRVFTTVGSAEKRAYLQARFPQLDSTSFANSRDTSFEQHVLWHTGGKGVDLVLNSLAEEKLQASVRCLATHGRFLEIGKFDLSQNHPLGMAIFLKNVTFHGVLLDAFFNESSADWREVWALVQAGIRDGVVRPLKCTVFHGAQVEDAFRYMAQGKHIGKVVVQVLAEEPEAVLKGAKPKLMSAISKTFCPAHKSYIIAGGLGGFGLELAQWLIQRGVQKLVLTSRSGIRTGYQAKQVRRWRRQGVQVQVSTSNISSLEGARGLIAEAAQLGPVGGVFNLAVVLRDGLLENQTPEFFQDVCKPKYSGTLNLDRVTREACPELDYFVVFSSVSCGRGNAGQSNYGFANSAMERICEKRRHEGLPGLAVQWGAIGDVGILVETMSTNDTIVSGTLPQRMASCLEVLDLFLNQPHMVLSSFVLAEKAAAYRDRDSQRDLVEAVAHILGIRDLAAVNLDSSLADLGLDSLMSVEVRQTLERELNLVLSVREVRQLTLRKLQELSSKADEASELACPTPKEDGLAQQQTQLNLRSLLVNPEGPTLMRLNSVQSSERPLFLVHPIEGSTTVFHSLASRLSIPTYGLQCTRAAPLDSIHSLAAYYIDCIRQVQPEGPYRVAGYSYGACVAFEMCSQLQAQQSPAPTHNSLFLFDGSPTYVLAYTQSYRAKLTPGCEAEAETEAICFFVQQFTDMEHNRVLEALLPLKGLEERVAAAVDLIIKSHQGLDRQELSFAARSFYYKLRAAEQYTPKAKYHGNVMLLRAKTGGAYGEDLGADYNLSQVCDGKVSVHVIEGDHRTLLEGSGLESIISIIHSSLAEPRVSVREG

SMILES	inhibition at 100 µM
Cc1ccc(C(=O)N2CCC(c3ccc(C#N)cc3)CC2)cc1NC(=O)NCCCN1CCCC(C)C1 (stereo not shown) [Example 100, 1-[5-[4-(4-cyanophenyl)piperidine-1-carbonyl]-2-methyl-phenyl]-3-[3-(3-methyl-1-piperidyl)propyl]urea]	77.8%
Cc1ccc(C(=O)N2CCC(c3ccc(C#N)cc3)CC2)cc1NC(=O)NC1CCOC(C)(C)C1 (stereo not shown) [Example 77, 1-[5-[4-(4-cyanophenyl)piperidine-1-carbonyl]-2-methyl-phenyl]-3-(2,2-dimethyloxan-4-yl)urea]	89.6%
Cc1ccc(C(=O)N2CCC(c3ccc(C#N)cc3)CC2)cc1NC(=O)NCCN1CCC(F)(F)C1 [Example 254, 1-[5-[4-(4-cyanophenyl)piperidine-1-carbonyl]-2-methyl-phenyl]-3-[2-(3,3-difluoropyrrolidin-1-yl)ethyl]urea]	104%
CC(C)NC(=O)Nc1cccc(C(=O)N2CCC(c3ccc(C#N)cc3)CC2)c1 [Example 46, 3-[3-[4-(4-cyanophenyl)piperidine-1-carbonyl]phenyl]-1-propan-2-yl-urea]	90.3%
Cc1ccc(C(=O)N2CCC(c3ccc(C#N)cc3)CC2)cc1NC(=O)NCc1cncn1C [Example 150, 1-[5-[4-(4-cyanophenyl)piperidine-1-carbonyl]-2-methyl-phenyl]-3-[(3-methylimidazol-4-yl)methyl]urea]	85%
Cc1ccc(C(=O)N2CCC(c3ccc(C#N)cc3)CC2)cc1NC(=O)NCC1COc2ccccc2O1 (stereo not shown) [Example 165, 1-[5-[4-(4-cyanophenyl)piperidine-1-carbonyl]-2-methyl-phenyl]-3-(7,10-dioxabicyclo[4.4.0]deca-2,4,11-trien-8-ylmethyl)urea]	92.4%
Cc1ccc(C(=O)N2CCC(c3ccc(C#N)cc3)CC2)cc1NC(=O)NC1(C)CCS(=O)(=O)C1 (stereo not shown) [Example 335, 1-[5-[4-(4-cyanophenyl)piperidine-1-carbonyl]-2-methyl-phenyl]-3-(3-methyl-1,1-dioxo-thiolan-3-yl)urea]	78.2%
Cc1ccc(C(=O)N2CCC(c3ccc(F)cc3)CC2)cc1NC(=O)NC1CCNC1 (stereo not shown) [Example 349, 1-[5-[4-(4-fluorophenyl)piperidine-1-carbonyl]-2-methyl-phenyl]-3-pyrrolidin-3-yl-urea]	88.7%
Cc1ccc(C(=O)N2CCC(c3ccc(C#N)cc3)CC2)cc1NC(=O)NC1CCN(S(=O)(=O)N(C)C)CC1 [Example 285, 1-[5-[4-(4-cyanophenyl)piperidine-1-carbonyl]-2-methyl-phenyl]-3-[1-(dimethylsulfamoyl)-4-piperidyl]urea]	98.7%
Cc1ccc(C(=O)N2CCC(c3ccc(C#N)cc3)CC2)cc1NC(=O)NCCNC(=O)C(=O)O [Example 104, 2-[[5-[4-(4-cyanophenyl)piperidine-1-carbonyl]-2-methyl-phenyl]carbamoylamino]ethylcarbamoylformic acid]	74.5%
CC(=O)NCCN(C)C(=O)Nc1cc(C(=O)N2CCC(c3ccc(C#N)cc3)CC2)ccc1C [Example 401, N-[2-[[5-[4-(4-cyanophenyl)piperidine-1-carbonyl]-2-methylphenyl]carbamoyl-methylamino]ethyl]acetamide]	65.7%
CC(=O)NC1CN(C(=O)Nc2cc(C(=O)N3CCC(c4ccc(C#N)cc4)CC3)ccc2C)C1 [Example 312, 3-acetamido-N-[5-[4-(4-cyanophenyl)piperidine-1-carbonyl]-2-methyl-phenyl]azetidine-1-carboxamide]	88.8%
Cc1ccc(C(=O)N2CCC(c3ccc(C#N)cc3)CC2)cc1NC(=O)NCCNC(=O)c1cccn1C [Example 118, N-[2-[[5-[4-(4-cyanophenyl)piperidine-1-carbonyl]-2-methyl-phenyl]carbamoylamino]ethyl]-1-methyl-pyrrole-2-carboxamide]	96.2%
CCC(=O)NC(C)(C)CNC(=O)Nc1cc(C(=O)N2CCC(c3ccc(C#N)cc3)CC2)ccc1C [Example 262, N-[1-[[5-[4-(4-cyanophenyl)piperidine-1-carbonyl]-2-methyl-phenyl]carbamoylamino]-2-methyl-propan-2-yl]propanamide]	98.7%
Cc1ccc(C(=O)N2CCC(c3ccc(C#N)cc3)CC2)cc1NC(=O)NCc1ncccn1 [Example 291, 1-[5-[4-(4-cyanophenyl)piperidine-1-carbonyl]-2-methyl-phenyl]-3-(pyrimidin-2-ylmethyl)urea]	89.6%
Cc1ccc(C(=O)N2CCC(c3ccc(C#N)cc3)CC2)cc1NC(=O)NC1CC1 [Example 225, 1-[5-[4-(4-cyanophenyl)piperidine-1-carbonyl]-2-methyl-phenyl]-3-cyclopropyl-urea]	89.9%

SMILES	inhibition at 100 µM
COCCOCCCNC(=O)Nc1cc(C(=O)N2CCC(c3ccc(C#N)cc3)CC2)ccc1C [Example 161, 1-[5-[4-(4-cyanophenyl)piperidine-1-carbonyl]-2-methyl-phenyl]-3-[3-(2-methoxyethoxy)propyl]urea]	93.7%
CC(C)NC(=O)Nc1cc(C(=O)N2CCC(c3ccc(C#N)cc3)CC2)ccc1S(C)(=O)=O [Example 364, 3-[5-[4-(4-cyanophenyl)piperidine-1-carbonyl]-2-methylsulfonylphenyl]-1-propan-2-ylurea]	84.1%
Cc1ccc(C(=O)N2CCC(c3ccc(S(C)(=O)=O)cc3)CC2)cc1NC(=O)NC(C)C [Example 374, 1-[2-methyl-5-[4-(4-methylsulfonylphenyl)piperidine-1-carbonyl]phenyl]-3-propan-2-ylurea]	71.8%
C#CCNC(=O)Nc1cc(C(=O)N2CCC(c3ccc(C#N)cc3)CC2)ccc1C [Example 43, 1-[5-[4-(4-cyanophenyl)piperidine-1-carbonyl]-2-methyl-phenyl]-3-prop-2-ynyl-urea]	88.3%
CCCNC(=O)CCCNC(=O)Nc1cc(C(=O)N2CCC(c3ccc(C#N)cc3)CC2)ccc1C [Example 235, 4-[[5-[4-(4-cyanophenyl)piperidine-1-carbonyl]-2-methyl-phenyl]carbamoylamino]-N-propyl-butanamide]	95.8%
Cc1cc(C)c(C(=O)N2CCC(c3ccc(C#N)cc3)CC2)cc1NC(=O)NCCCS(C)(=O)=O [Example 294, 1-[5-[4-(4-cyanophenyl)piperidine-1-carbonyl]-2,4-dimethyl-phenyl]-3-(3-methylsulfonylpropyl)urea]	92.2%
Cc1ccc(C(=O)N2CCC(c3ccc(C#N)cc3)CC2)cc1NC(=O)N1CCN(C(=O)C(C)C)CC1 [Example 331, N-[5-[4-(4-cyanophenyl)piperidine-1-carbonyl]-2-methyl-phenyl]-4-(2-methylpropanoyl)piperazine-1-carboxamide]	84.2%
Cc1ccc(C(=O)N2CCC(c3ccc(C#N)cc3)CC2)cc1NC(=O)NCC(=O)O [Example 408, 2-[[5-[4-(4-cyanophenyl)piperidine-1-carbonyl]-2-methylphenyl]carbamoylamino]acetic acid]	95.7%
CCOC(=O)N1CCN(C(=O)Nc2cc(C(=O)N3CCC(c4ccc(C#N)cc4)CC3)ccc2C)CC1 [Example 330, Ethyl 4-[[5-[4-(4-cyanophenyl)piperidine-1-carbonyl]-2-methyl-phenyl]carbamoyl]piperazine-1-carboxylate]	82.4%
CC(=O)NCCCNC(=O)Nc1cc(C(=O)N2CCC(c3ccc(C#N)cc3)CC2)ccc1C [Example 273, N-[3-[[5-[4-(4-cyanophenyl)piperidine-1-carbonyl]-2-methyl-phenyl]carbamoylamino]propyl]acetamide]	87%
Cc1ccc(C(=O)N2CCC(c3ccc(C#N)cc3)CC2)cc1NC(=O)NCC1CCCCO1 (stereo not shown) [Example 166, 1-[5-[4-(4-cyanophenyl)piperidine-1-carbonyl]-2-methyl-phenyl]-3-(oxan-2-ylmethyl)urea]	94.7%
C#CCNC(=O)Nc1cc(C(=O)N2CCC(c3ccc(C#N)cc3)CC2)c(C)cc1C [Example 413, 1-[5-[4-(4-cyanophenyl)piperidine-1-carbonyl]-2,4-dimethylphenyl]-3-prop-2-ynylurea]	101%
Cc1ccc(C(=O)N2CCC(c3ccc(C#N)cc3)CC2)cc1NC(=O)NC1CN(C(=O)C(C)C)C1 [Example 301, 1-[5-[4-(4-cyanophenyl)piperidine-1-carbonyl]-2-methyl-phenyl]-3-[1-(2-methylpropanoyl)azetidin-3-yl]urea]	96.6%
Cc1ccc(C(=O)N2CCC(c3ccc(C#N)cc3)CC2)cc1NC(=O)N[C@H]1CC[C@H](N)C1 [Example 318, 3-[(1S,3S)-3-aminocyclopentyl]-1-[5-[4-(4-cyanophenyl)piperidine-1-carbonyl]-2-methyl-phenyl]urea]	93.9%
Cc1ccc(C(=O)N2CCC(c3ccc(C#N)cc3)CC2)cc1NC(=O)NCc1cc(=O)[nH]o1 [Example 136, 1-[5-[4-(4-cyanophenyl)piperidine-1-carbonyl]-2-methyl-phenyl]-3-[(3-oxo-1,2-oxazol-5-yl)methyl]urea]	80.9%
Cc1ccc(C(=O)N2CCC(c3ccc(C#N)cc3)CC2)cc1NC(=O)NCc1ccc(C#N)cc1 [Example 33, 3-[(4-cyanophenyl)methyl]-1-[5-[4-(4-cyanophenyl)piperidine-1-carbonyl]-2-methyl-phenyl]urea]	91.8%

same assay, conditions: FAS enzyme assay, IC50 from fitted sigmoid curves

SMILES	IC50, inhibition of human Fatty Acid Synthase
Cc1ccc(C(=O)N2CCC(c3ccc(C#N)cc3)CC2)cc1NC(=O)N1CCS(=O)(=O)CC1 [N-[5-[4-(4-cyanophenyl)piperidine-1-carbonyl]-2-methylphenyl]-1,1-dioxo-1,4-thiazinane-4-carboxamide]	do not have IC50s in the range of about 0.001 μM to about 30 μM
Cc1ccc(C(=O)N2CCC(c3cccc(Cl)c3)CC2)cc1NC(=O)NC(C)C [1-[5-[4-(3-chlorophenyl)piperidine-1-carbonyl]-2-methylphenyl]-3-propan-2-ylurea]	do not have IC50s in the range of about 0.001 μM to about 30 μM
